From patent US10925876B2, “Methods for using triazolo-pyrazinyl soluble guanylate cyclase activators in fibrotic disorders” (Merck Sharp & Dohme Corp., priority 2016, dated 2021) come the findings set out here.

In this experiment the target is T1, sGC α1/β1 heterodimer (Homo sapiens, UniProt Q02108+Q02153).
T1 construct: expressed in transfected cells
T1 sequence (Q02108 1-690): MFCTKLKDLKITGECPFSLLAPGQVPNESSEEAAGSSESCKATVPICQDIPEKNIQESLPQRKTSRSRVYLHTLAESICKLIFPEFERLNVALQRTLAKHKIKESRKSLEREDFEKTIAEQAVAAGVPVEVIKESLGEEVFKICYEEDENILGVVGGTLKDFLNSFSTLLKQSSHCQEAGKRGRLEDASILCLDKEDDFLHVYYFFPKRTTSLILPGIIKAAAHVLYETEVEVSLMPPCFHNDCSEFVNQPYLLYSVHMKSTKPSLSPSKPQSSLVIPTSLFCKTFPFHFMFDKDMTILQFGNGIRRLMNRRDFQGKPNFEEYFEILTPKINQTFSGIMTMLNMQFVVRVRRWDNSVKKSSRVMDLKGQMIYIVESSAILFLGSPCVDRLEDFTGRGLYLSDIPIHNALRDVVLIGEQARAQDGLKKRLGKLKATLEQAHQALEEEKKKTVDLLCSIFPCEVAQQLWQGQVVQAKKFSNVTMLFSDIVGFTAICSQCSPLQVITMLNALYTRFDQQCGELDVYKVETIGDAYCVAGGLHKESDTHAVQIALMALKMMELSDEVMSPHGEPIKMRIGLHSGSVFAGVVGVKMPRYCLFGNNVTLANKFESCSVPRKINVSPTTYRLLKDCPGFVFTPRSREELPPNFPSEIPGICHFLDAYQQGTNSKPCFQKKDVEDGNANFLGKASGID
T1 sequence (Q02153 1-619): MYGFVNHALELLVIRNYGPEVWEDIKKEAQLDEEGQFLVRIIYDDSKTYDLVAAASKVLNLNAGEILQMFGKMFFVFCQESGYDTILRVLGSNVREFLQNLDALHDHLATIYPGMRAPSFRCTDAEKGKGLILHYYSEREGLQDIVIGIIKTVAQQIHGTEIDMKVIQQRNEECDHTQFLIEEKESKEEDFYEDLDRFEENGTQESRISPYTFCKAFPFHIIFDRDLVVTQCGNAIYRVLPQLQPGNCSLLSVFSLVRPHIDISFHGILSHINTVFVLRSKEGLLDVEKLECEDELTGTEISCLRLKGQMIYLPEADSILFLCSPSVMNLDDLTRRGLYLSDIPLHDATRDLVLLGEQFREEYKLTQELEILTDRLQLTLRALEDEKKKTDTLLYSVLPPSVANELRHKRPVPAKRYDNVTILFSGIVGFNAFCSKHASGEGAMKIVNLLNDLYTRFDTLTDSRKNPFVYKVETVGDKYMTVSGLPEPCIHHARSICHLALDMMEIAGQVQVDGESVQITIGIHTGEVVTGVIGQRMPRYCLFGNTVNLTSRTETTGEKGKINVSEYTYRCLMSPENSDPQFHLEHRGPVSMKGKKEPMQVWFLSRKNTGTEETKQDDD
As to the kind of experiment: Cell-Based sGC Functional Assay (CASA Assay), cGMP generation in CHO-K1/sGC cells.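 Also: reference Compound A is a published heme-dependent sGC activator.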 As to conditions: maximum cGMP production of Compound A set to 100% activation, read-out: % Act. (percent activation relative to Compound A). In short, it runs like this: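 Intracellular cGMP quantified by HTRF competition after 1 h, 37 °C compound exposure, with or without 1 μM DETA-NO, in stable CHO-K1/sGC α1/β1 cells (4×10^5/mL; buffer with 0.5 mM IBMX, 5 mM MgCl2, 10 mM HEPES, 0.05% BSA; 2.5% DMSO). Activation normalized to reference Compound A maximum; 4P fit.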

Take `Nc1nc(-c2cn3ncnc3c(CCC(F)(F)F)n2)nc2c1C(c1ccc(C(F)(F)F)cn1)(C1CC1)C(=O)N2` (centres unmarked) [Example 80A, 4-amino-5-cyclopropyl-5-(5-(trifluoromethyl)pyridin-2-yl)-2-(8-(3,3,3-trifluoropropyl)-[1,2,4]triazolo[1,5-a]pyrazin-6-yl)-5H-pyrrolo[2,3-d]pyrimidin-6(7H)-one]: the Emax was found to be 115%.
Next, `CC1(c2ccc(F)cn2)C(=O)Nc2nc(-c3cn4ncnc4c(CCC(F)(F)F)n3)nc(N)c21` (centres unmarked) [Example 81B, 4-amino-5-(5-fluoropyridin-2-yl)-5-methyl-2-(8-(3,3,3-trifluoropropyl)-[1,2,4]triazolo[1,5-a]pyrazin-6-yl)-5H-pyrrolo[2,3-d]pyrimidin-6(7H)-one]: 115%; `Nc1nc(-c2cn3ncnc3c(CCC(F)(F)F)n2)nc2c1C(c1ccc(Cl)cn1)(C1CC1)C(=O)N2` (centres unmarked) [Example 82A, 4-amino-5-(5-chloropyridin-2-yl)-5-cyclopropyl-2-(8-(3,3,3-trifluoropropyl)-[1,2,4]triazolo[1,5-a]pyrazin-6-yl)-5H-pyrrolo[2,3-d]pyrimidin-6(7H)-one]: 125%.
Next, `Nc1nc(-c2cn3ncnc3c(CCC(F)(F)F)n2)nc2c1C(c1ccc(F)c(F)c1)(C1CC1)C(=O)N2` (centres unmarked) [Example 83A, 4-amino-5-cyclopropyl-5-(3,4-difluorophenyl)-2-(8-(3,3,3-trifluoropropyl)-[1,2,4]triazolo[1,5-a]pyrazin-6-yl)-5H-pyrrolo[2,3-d]pyrimidin-6(7H)-one]: 100%; `CC1(c2ccc(F)c(F)c2)C(=O)Nc2nc(-c3cn4ncnc4c(CCC(F)(F)F)n3)nc(N)c21` (centres unmarked) [Example 84B, 4-amino-5-(3,4-difluorophenyl)-5-methyl-2-(8-(3,3,3-trifluoropropyl)-[1,2,4]triazolo[1,5-a]pyrazin-6-yl)-5H-pyrrolo[2,3-d]pyrimidin-6(7H)-one]: 101%.
Next, `COc1cccc(Cc2nc(-c3nc(N)c4c(n3)NC(=O)[C@@]4(C)c3ccc(F)cc3)cn3ncnc23)c1` [Example 86B, (S)-4-amino-5-(4-fluorophenyl)-2-(8-(3-methoxybenzyl)-[1,2,4]triazolo[1,5-a]pyrazin-6-yl)-5-methyl-5H-pyrrolo[2,3-d]pyrimidin-6(7H)-one]: 126%; `Cc1nc2c(Cc3ccc(F)cc3)nc(-c3nc(N)c4c(n3)NC(=O)[C@@]4(C)c3ccc(F)cc3)cn2n1` [Example 87B, (S)-4-amino-2-(8-(4-fluorobenzyl)-2-methyl-[1,2,4]triazolo[1,5-a]pyrazin-6-yl)-5-(4-fluorophenyl)-5-methyl-5H-pyrrolo[2,3-d]pyrimidin-6(7H)-one]: 138%.
In the case of `Cc1nc2c(CCC(F)(F)C(F)(F)F)nc(-c3nc(N)c4c(n3)NC(=O)C4(C)c3ccc(F)cn3)cn2n1` (centres unmarked) [Example 89B, 4-amino-5-(5-fluoropyridin-2-yl)-5-methyl-2-(2-methyl-8-(3,3,4,4,4-pentafluorobutyl)-[1,2,4]triazolo[1,5-a]pyrazin-6-yl)-5H-pyrrolo[2,3-d]pyrimidin-6(7H)-one], the Emax is 109%.
Next, `Cc1nc2c(CCC(F)(F)C(F)(F)F)nc(-c3nc(N)c4c(n3)NC(=O)C4(C)c3ccc(Cl)c(F)c3)cn2n1` (centres unmarked) [Example 90B, 4-amino-5-(4-chloro-3-fluorophenyl)-5-methyl-2-(2-methyl-8-(3,3,4,4,4-pentafluorobutyl)-[1,2,4]triazolo[1,5-a]pyrazin-6-yl)-5H-pyrrolo[2,3-d]pyrimidin-6(7H)-one]: 135%; `CCCc1nc(-c2nc(N)c3c(n2)NC(=O)[C@@]3(C)c2ccc(F)cc2)cn2nc(C)nc12` [Example 91A, (S)-4-amino-5-(4-fluorophenyl)-5-methyl-2-(2-methyl-8-propyl-[1,2,4]triazolo[1,5-a]pyrazin-6-yl)-5,7-dihydro-6H-pyrrolo[2,3-d]pyrimidin-6-one]: 105%.
Regarding `CCCc1nc(-c2nc(N)c3c(n2)NC(=O)C3(C)c2ccc(F)cn2)cn2nc(C)nc12` (centres unmarked) [Example 92B, 4-amino-5-(5-fluoropyridin-2-yl)-5-methyl-2-(2-methyl-8-propyl-[1,2,4]triazolo[1,5-a]pyrazin-6-yl)-5H-pyrrolo[2,3-d]pyrimidin-6(7H)-one], the Emax was 167%.
Take `CCCc1nc(-c2nc(N)c3c(n2)NC(=O)C3(C)c2ccc(Cl)cc2)cn2nc(C)nc12` (centres unmarked) [Example 93A, 4-amino-5-(4-chlorophenyl)-5-methyl-2-(2-methyl-8-propyl-[1,2,4]triazolo[1,5-a]pyrazin-6-yl)-5H-pyrrolo[2,3-d]pyrimidin-6(7H)-one]: the Emax worked out at 159%.
For `Nc1nc(-c2cn3ncnc3c(CCC(F)(F)C(F)(F)F)n2)nc2c1C(c1cn(C3CC3)nn1)(C1CC1)C(=O)N2` (centres unmarked) [Example 96B, 4-amino-5-cyclopropyl-5-(1-cyclopropyl-1H-1,2,3-triazol-4-yl)-2-(8-(3,3,4,4,4-pentafluorobutyl)-[1,2,4]triazolo[1,5-a]pyrazin-6-yl)-5H-pyrrolo[2,3-d]pyrimidin-6(7H)-one], the Emax was 108%.
Take `CC1(c2nnc(C3CC3)o2)C(=O)Nc2nc(-c3cn4ncnc4c(CCCC(F)(F)F)n3)nc(N)c21` (centres unmarked) [Example 99A, 4-amino-5-(5-cyclopropyl-1,3,4-oxadiazol-2-yl)-5-methyl-2-(8-(4,4,4-trifluorobutyl)-[1,2,4]triazolo[1,5-a]pyrazin-6-yl)-5H-pyrrolo[2,3-d]pyrimidin-6(7H)-one]: the Emax turned out to be 113%.
`CC1(c2nnc(C(F)F)o2)C(=O)Nc2nc(-c3cn4ncnc4c(CCCC(F)(F)F)n3)nc(N)c21` (centres unmarked) [Example 100A, 4-amino-5-(5-(difluoromethyl)-1,3,4-oxadiazol-2-yl)-5-methyl-2-(8-(4,4,4-trifluorobutyl)-[1,2,4]triazolo[1,5-a]pyrazin-6-yl)-5H-pyrrolo[2,3-d]pyrimidin-6(7H)-one]: the Emax was 184%.
Next, `CC1(c2nnc(C(F)(F)F)o2)C(=O)Nc2nc(-c3cn4ncnc4c(CCCC(F)(F)F)n3)nc(N)c21` (centres unmarked) [Example 101A, 4-amino-5-methyl-2-(8-(4,4,4-trifluorobutyl)-[1,2,4]triazolo[1,5-a]pyrazin-6-yl)-5-(5-(trifluoromethyl)-1,3,4-oxadiazol-2-yl)-5H-pyrrolo[2,3-d]pyrimidin-6(7H)-one]: 154%; `CCCCc1nc(-c2nc(N)c3c(n2)NC(=O)C3(C)c2nnc(C(F)(F)F)o2)cn2ncnc12` (centres unmarked) [Example 102A, 4-amino-2-(8-butyl-[1,2,4]triazolo[1,5-a]pyrazin-6-yl)-5-methyl-5-(5-(trifluoromethyl)-1,3,4-oxadiazol-2-yl)-5H-pyrrolo[2,3-d]pyrimidin-6(7H)-one]: 132%; `Nc1nc(-c2cn3ncnc3c(CCCC(F)(F)F)n2)nc2c1C(c1nnc(C3(F)CC3)o1)(C1CC1)C(=O)N2` (centres unmarked) [Example 108A, 4-amino-5-cyclopropyl-5-(5-(1-fluorocyclopropyl)-1,3,4-oxadiazol-2-yl)-2-(8-(4,4,4-trifluorobutyl)-[1,2,4]triazolo[1,5-a]pyrazin-6-yl)-5H-pyrrolo[2,3-d]pyrimidin-6(7H)-one]: 107%.
Next, `CC1(c2nnc(C3(F)CC3)o2)C(=O)Nc2nc(-c3cn4ncnc4c(CCCC(F)(F)F)n3)nc(N)c21` (centres unmarked) [Example 109A, 4-amino-5-(5-(1-fluorocyclopropyl)-1,3,4-oxadiazol-2-yl)-5-methyl-2-(8-(4,4,4-trifluorobutyl)-[1,2,4]triazolo[1,5-a]pyrazin-6-yl)-5H-pyrrolo[2,3-d]pyrimidin-6(7H)-one]: 92%; `CC1(c2ccc(O)cn2)C(=O)Nc2nc(-c3cn4ncnc4c(CCCC(F)(F)F)n3)nc(N)c21` (centres unmarked) [Example 111A, 4-amino-5-(5-hydroxypyridin-2-yl)-5-methyl-2-(8-(4,4,4-trifluorobutyl)-[1,2,4]triazolo[1,5-a]pyrazin-6-yl)-5H-pyrrolo[2,3-d]pyrimidin-6(7H)-one]: 75%.
